# pIC50: −log10 of the molar value. Read-outs that look alike come from different tables or passages of the source.
# Tests used:
# [1] = molecular target: GDP-bound KRAS protein (aa 1-169), containing both G12C and C118A amino acid substitutions (Homo sapiens, UniProt P01116, C118A/G12C); assay: Coupled nucleotide exchange assay (SOS-mediated, AlphaScreen); assay type: biochemical; details: 5 min compound pre-incubation
# [2] = test system: Phosphorylation of ERK1/2 in MIA PaCa-2 cells; assay: Phospho-ERK1/2 MSD assay in MIA PaCa-2 cells; assay type: cell-based; details: read-out: p-ERK IC50 (2 h; MIA PaCa-2), 2 h compound treatment
# In short: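 MSD electrochemiluminescence readout of phospho-ERK1/2 in whole-cell lysates, IC50 by 4-parameter logistic fit. Compound titrations were applied for 2 or 4 h at 37 °C, 5% CO2, followed by 10 ng/mL EGF stimulation for 10 min before lysis.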
# Chain of GDP-bound KRAS protein (aa 1-169), containing both G12C and C118A amino acid substitutions (P01116 1-169 isoform P01116-2 G12C/C118A): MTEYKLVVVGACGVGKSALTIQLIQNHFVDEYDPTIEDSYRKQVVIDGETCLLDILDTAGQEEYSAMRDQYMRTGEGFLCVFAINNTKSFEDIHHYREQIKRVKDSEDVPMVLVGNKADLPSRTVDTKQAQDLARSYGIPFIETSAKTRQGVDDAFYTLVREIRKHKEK
SMILES,Coupled exchange IC50 (5 min) [1],"pIC50 ([2]; Homo sapiens, MIA PaCa-2, 2 h)",pIC50 [2]
"C=CC(=O)N1CCN(c2nc(=O)n(-c3ccccc3C(C)C)c3nc(-c4ccc(F)cc4F)c(Cl)cc23)[C@@H](C)C1 (single isomer, unassigned) [Example 54-85-1]",3.4 | nda μM,,5.82
"C=CC(=O)N1CCN(c2nc(=O)n(-c3c(C)ccnc3CC)c3nc(-c4c(O)cccc4F)c(Cl)cc23)[C@@H](C)C1 (single isomer, unassigned) [Example 55-10-1]",0.065 | nda μM,,7.09
"C=CC(=O)N1CCN(c2nc(=O)n(-c3c(C(C)C)n[nH]c3C(C)C)c3nc(-c4ccccc4F)c(Cl)cc23)[C@@H](C)C1 [Example 54-72, 6-chloro-1-(3,5-di(2-propanyl)-1H-pyrazol-4-yl)-7-(2-fluorophenyl)-4-((2S)-2-methyl-4-(2-propenoyl)-1-piperazinyl) pyrido[2,3-d]pyrimidin-2(1H)-one]",0.108 | nda μM,6.74,
"C=CC(=O)N1CCN(c2nc(=O)n(-c3ccccc3C3CCC3)c3nc(-c4c(O)cccc4F)c(Cl)cc23)[C@@H](C)C1 (single isomer, unassigned) [Example 54-10-2]",0.071 | nda μM,7.22,
"C=CC(=O)N1CCN(c2nc(=O)n(-c3c(C)cccc3C(C)C)c3nc(-c4ccccc4F)c(C)cc23)[C@@H](C)C1 [Example 102, 7-(2-Fluorophenyl)-6-methyl-1-(2-methyl-6-(2-propanyl)phenyl)-4-((2S)-2-methyl-4-(2-propenoyl)-1-piperazinyl)pyrido[2,3-d]pyrimidin-2(1H)-one]",0.421 | nda μM,6.18,
"C=CC(=O)N1CCN(c2nc(=O)n(-c3c(C(C)C)ccnc3C)c3nc(-c4ccccc4F)c(F)cc23)[C@@H](C)C1 (single isomer, unassigned) [Example 58-16-2]",0.315 | nda μM,6.50,
"C=CC(=O)N1CCN(c2nc(=O)n(-c3ccnn3C3CCC3)c3nc(-c4ccccc4F)c(Cl)cc23)[C@@H](C)C1 [Example 54-29, 6-chloro-1-(1-cyclobutyl-1H-pyrazol-5-yl)-7-(2-fluorophenyl)-4-((2S)-2-methyl-4-(2-propenoyl)-1-piperazinyl) pyrido[2,3-d]pyrimidin-2(1H)-one]",0.406 | nda μM,6.14,
"C=CC(=O)N1CCN(c2nc(=O)n(-c3ccccc3C3CCC3)c3nc(-c4ccccc4F)c(Cl)cc23)[C@@H](C)C1 (single isomer, unassigned) [Example 54-12-1]",0.13 | nda μM,,7.11
"C=CC(=O)N1CCN(c2nc(=O)n(-c3ccccc3C(C)C)c3nc(-c4cc(OC(F)F)ccc4F)c(Cl)cc23)[C@@H](C)C1 [Example 54-51, 6-chloro-7-(5-(difluoromethoxy)-2-fluorophenyl)-4-((2S)-2-methyl-4-(2-propenoyl)-1-piperazinyl)-1-(2-(2-propanyl)phenyl)pyrido [2,3-d]pyrimidin-2(1H)-one]",0.265 | nda μM,6.69,
"C=CC(=O)N1CCN(c2nc(=O)n(-c3c(C)cc(CN(C)C)cc3C(C)C)c3nc(-c4ccccc4F)c(Cl)cc23)[C@@H](C)C1 (single isomer, unassigned) [Example 80-1-1]",0.044 | nda μM,,7.54
"C=CC(=O)N1CCN(c2nc(=O)n(-c3ccccc3C(C)C)c3nc(-c4ccc(F)cc4F)c(Cl)cc23)[C@@H](C)C1 (single isomer, unassigned) [Example 54-85-2]",0.078 | nda μM,,7.10
"C=CC(=O)N1CCN(c2nc(=O)n(-c3c(C)cc(N)nc3C(C)C)c3nc(-c4ccccc4F)c(Cl)cc23)[C@@H](C)C1 [Example 136, 1-(6-Amino-4-methyl-2-(2-propanyl)-3-pyridinyl)-6-chloro-7-(2-fluorophenyl)-4-((2S)-2-methyl-4-(2-propenoyl)-1-piperazinyl)pyrido[2,3-d]pyrimidin-2(1H)-one]",0.135 | nda μM,6.92,
"C=CC(=O)N1CCN(c2nc(=O)n(-c3ncccc3CC(C)C)c3nc(-c4c(O)cccc4F)c(Cl)cc23)[C@@H](C)C1 [Example 54-101, 6-chloro-7-(2-fluoro-6-hydroxyphenyl)-4-((2S)-2-methyl-4-(2-propenoyl)-1-piperazinyl)-1-(3-(2-methylpropyl)-2-pyridinyl) pyrido[2,3-d]pyrimidin-2(1H)-one]",0.162 | nda μM,6.80,
"C=CC(=O)N1CCN(c2nc(=O)n(-c3c(C)ccnc3C(C)C)c3nc(-c4ccccc4F)c(Cl)cc23)[C@@H](C(F)F)C1 (single isomer, unassigned) [Example 78-3-2]",0.094 | nda μM,7.10,
"C=CC(=O)N1CCN(c2nc(=O)n(-c3c(C)ccnc3C(C)C)c3nc(-c4cc(N)ccc4F)c(F)cc23)[C@@H](C)C1 (single isomer, unassigned) [Example 58-6-2]",0.236 | nda μM,6.44,

# The remaining lines, values ahead:
Coupled exchange IC50 (5 min) [1],"pIC50 ([2]; Homo sapiens, MIA PaCa-2, 2 h)",pIC50 [2],SMILES
0.061 | nda μM,7.28,,"C=CC(=O)N1CCN(c2nc(=O)n(-c3c(C(C)C)ncnc3C(C)C)c3nc(-c4c(N)cccc4F)c(Cl)cc23)[C@@H](C)C1 [Example 56-2, 7-(2-amino-6-fluorophenyl)-6-chloro-1-(4,6-di(2-propanyl)-5-pyrimidinyl)-4-((2S)-2-methyl-4-(2-propenoyl)-1-piperazinyl)pyrido[2,3-d]pyrimidin-2(1H)-one]"
0.472 | nda μM,6.27,,"C=CC(=O)N1CCN(c2nc(=O)n(-c3scnc3C(C)C)c3nc(-c4ccccc4F)c(F)cc23)[C@@H](C)C1 [Example 57-12, 6-fluoro-7-(2-fluorophenyl)-4-((2S)-2-methyl-4-(2-propenoyl)-1-piperazinyl)-1-(4-(2-propanyl)-1,3-thiazol-5-yl)pyrido[2,3-d]pyrimidin-2(1H)-one]"
0.236 | nda μM,6.19,,"C=CC(=O)N1CCN(c2nc(=O)n(-c3c(C)ccnc3C(C)C)c3nc(-c4cc(C(F)(F)F)ccc4F)c(Cl)cc23)[C@@H](C)C1 (atropisomer, axis not shown; (M)) [Example 73-8, (M)-6-chloro-7-(2-fluoro-5-(trifluoromethyl)phenyl)-1-(4-methyl-2-(2-propanyl)-3-pyridinyl)-4-((2S)-2-methyl-4-(2-propenoyl)-1-piperazinyl)pyrido[2,3-d]pyrimidin-2(1H)-one]"
0.257 | nda μM,6.13,,"C=CC(=O)N1CCN(c2nc(=O)n(-c3c(F)cccc3C(C)C)c3nc(-c4c(O)cccc4F)c(F)cc23)[C@@H](C)C1 [Example 59-2, 6-fluoro-7-(2-fluoro-6-hydroxyphenyl)-1-(2-fluoro-6-(2-propanyl)phenyl)-4-((2S)-2-methyl-4-(2-propenoyl)-1-piperazinyl)pyrido[2,3-d]pyrimidin-2(1H)-one]"
0.096 | nda μM,6.62,,"C=CC(=O)N1CCN(c2nc(=O)n(-c3c(C)ccnc3C(C)C)c3nc(-c4c(F)ccc5[nH]ncc45)c(Cl)cc23)[C@@H](C)C1 (single isomer, unassigned) [Example 82-2]"
0.03 | nda μM,7.24,,"C=CC(=O)N1CCN(c2nc(=O)n(-c3c(C(C)C)nc(OC)nc3C(C)C)c3nc(-c4ccccc4F)c(Cl)cc23)[C@@H](C)C1 [Example 55-37, 6-chloro-7-(2-fluorophenyl)-1-(2-methoxy-4,6-di(2-propanyl)-5-pyrimidinyl)-4-((2S)-2-methyl-4-(2-propenoyl)-1-piperazinyl)pyrido[2,3-d]pyrimidin-2(1H)-one]"
2.72 | nda μM,,5.45,"C=CC(=O)N1CCN(c2nc(=O)n(-c3c(C)ccnc3C(C)C)c3nc(-c4ccccc4F)c(C)nc23)[C@@H](C)C1 (single isomer, unassigned) [Example 143-1]"
0.101 | nda μM,7.35,,"C=CC(=O)N1CCN(c2nc(=O)n(-c3ncccc3C(C)C)c3nc(-c4ccccc4F)c(Cl)cc23)[C@@H](C)C1 [Example 60-28, 6-chloro-7-(2-fluorophenyl)-4-((2S)-2-methyl-4-(2-propenoyl)-1-piperazinyl)-1-(3-(2-propanyl)-2-pyridinyl)pyrido[2,3-d]pyrimidin-2(1H)-one]"
0.095 | nda μM,6.66,,"C=CC(=O)N1CCN(c2nc(=O)n(-c3c(C)ccnc3C(C)C)c3nc(-c4c(O)cccc4Cl)c(F)cc23)[C@@H](C)C1 [Example 58-9, 7-(2-chloro-6-hydroxyphenyl)-6-fluoro-1-(4-methyl-2-(2-propanyl)-3-pyridinyl)-4-((2S)-2-methyl-4-(2-propenoyl)-1-piperazinyl)pyrido[2,3-d]pyrimidin-2(1H)-one]"
0.019 | nda μM,8.15,,"C=CC(=O)N1C[C@H](C)N(c2nc(=O)n(-c3c(C)ccnc3C(C)C)c3nc(-c4c(O)cccc4F)c(Cl)cc23)[C@@H](C)C1 (atropisomer, axis not shown; (M)) [Example 73-16, (M)-6-chloro-4-((2S,6S)-2,6-dimethyl-4-(2-propenoyl)-1-piperazinyl)-7-(2-fluoro-6-hydroxyphenyl)-1-(4-methyl-2-(2-propanyl)-3-pyridinyl)pyrido[2,3-d]pyrimidin-2(1H)-one]"
0.552 | nda μM,6.27,,"C=CC(=O)N1CCN(c2nc(=O)n(-c3c(C)ccnc3C(C)C)c3nc(-c4c(O)cccc4F)c(F)cc23)CC1 (single isomer, unassigned) [Example 75-4, (M)-6-fluoro-7-(2-fluoro-6-hydroxyphenyl)-1-(4-methyl-2-(2-propanyl)-3-pyridinyl)-4-(4-(2-propenoyl)-1-piperazinyl)pyrido[2,3-d]pyrimidin-2(1H)-one]"

# Source: patent US11090304B2 (Amgen Inc., priority 2018, dated 2021)
